Reference: ChEMBL document CHEMBL3352148, “Docking based virtual screening and molecular dynamics study to identify potential monoacylglycerol lipase inhibitors” (Bioorg Med Chem Lett, 2014)

How the values were obtained:
[1] = Predicted human oral absorption (QikProp); settings: in silico
[2] = Retention time of the compound by UPLC-MS/MS method; type: physicochemical
Monoglyceride lipase = biological target: T1, Monoglyceride lipase (Homo sapiens, UniProt Q99685); test: Inhibition of human MAGL using 4-Nitrophenylacetate substrate incubated for 15 mins
T1 sequence (Q99685 whole entry): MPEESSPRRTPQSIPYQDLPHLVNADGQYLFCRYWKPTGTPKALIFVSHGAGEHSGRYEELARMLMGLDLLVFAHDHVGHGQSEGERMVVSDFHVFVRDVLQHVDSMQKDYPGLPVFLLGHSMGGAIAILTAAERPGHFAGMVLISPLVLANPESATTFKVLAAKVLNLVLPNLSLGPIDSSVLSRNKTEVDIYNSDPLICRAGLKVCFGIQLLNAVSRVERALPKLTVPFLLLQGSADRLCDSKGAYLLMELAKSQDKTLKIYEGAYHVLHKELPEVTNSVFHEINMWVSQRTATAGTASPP

O=C(NCc1ccc2c(c1)OCO2)[C@H]1CC(=O)N(c2ccc(OCc3ccccc3Cl)cc2)C1
Fa [1]: 100%

Cc1ccc(N2C[C@H](C(=O)NCc3n[nH]c(=O)c4ccccc34)CC2=O)cc1C
Retention_time [2]: 1.68 min | Fa [1]: 77.9%

C[C@H]1CCCC[C@@H]1NC(=O)CC[C@@H]1NC(=O)N(CCc2c[nH]c3ccc(F)cc23)C1=O
Retention_time [2]: 2.26 min | Fa [1]: 90.7% | IC50 (Monoglyceride lipase): > 100 µM

Cc1cc(C)cc(NC(=O)[C@@H]2CC(=O)N(CCc3c[nH]c4ccc(F)cc34)C2)c1
Retention_time [2]: 1.55 min | Fa [1]: 100%

O=C(Cn1nnc2ccccc21)Nc1ccc(-c2nc3ccccc3s2)cc1
Retention_time [2]: 1.72 min | Fa [1]: 100%

O=C(COc1ccc2ccccc2c1)Nn1ccc2c(nnc3c(-c4ccc(F)cc4)cnn32)c1=O
Retention_time [2]: 1.29 min | Fa [1]: 100% | IC50 (Monoglyceride lipase): > 100 µM

O=C(NCc1ccc2c(c1)OCO2)[C@@H]1CC(=O)N(c2ccc(OCc3ccccc3Cl)cc2)C1
Retention_time [2]: 2.01 min

COc1ccc2cc(-c3nc4sc(C(=O)Nc5ccccc5OC)cc4c(=O)[nH]3)c(=O)oc2c1
Fa [1]: 80.4%

COc1nn(-c2ccc(NC(=O)OCc3ccccc3)c(C)c2)c(=O)o1
IC50 (Monoglyceride lipase): 0.02 µM
